Test results taken from ChEMBL document CHEMBL1201862, “PubChem BioAssay data set” (2004).
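Where inhibition never reached the appropriate level, the endpoint shown equals the highest concentration tested. Otherwise, values were interpolated linearly from a five-concentration, 48-hour dose response in 96-well plates. Here, GI50 denotes the concentration required for 50% inhibition of growth.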 Calls of active or inactive are those of the source. Rule as the data show it: active = GI50 up to about 1.1 µM and inactive = higher.

Columns and labels:
Assay in all cases: inhibition of tumour cell growth, NCI panel, 48 h
CCRF-CEM = tested on: CCRF-CEM
RXF 393 = tested on: RXF 393
NCI-H522 = tested on: NCI-H522
OVCAR-8 = tested on: OVCAR-8
Malme-3M = tested on: Malme-3M
COLO 205 = tested on: COLO 205
SW-620 = tested on: SW-620
NCI/ADR-RES = tested on: NCI/ADR-RES
LXFL 529 = tested on: LXFL 529
EKVX = tested on: EKVX
DLD-1 = tested on: DLD-1
NCI-H226 = tested on: NCI-H226
LOX IMVI = tested on: LOX IMVI
SK-MEL-28 = tested on: SK-MEL-28
M14 = tested on: M14
SF-268 = tested on: SF-268
HCC 2998 = tested on: HCC 2998
UO-31 = tested on: UO-31
T47D = tested on: T47D
A498 = tested on: A498

SMILES	GI50 (CCRF-CEM)	GI50 (RXF 393)	GI50 (NCI-H522)	GI50 (OVCAR-8)	GI50 (Malme-3M)	GI50 (COLO 205)	GI50 (SW-620)	GI50 (NCI/ADR-RES)	GI50 (LXFL 529)	GI50 (EKVX)	GI50 (DLD-1)	GI50 (NCI-H226)	GI50 (LOX IMVI)	GI50 (SK-MEL-28)	GI50 (M14)	GI50 (SF-268)	GI50 (HCC 2998)	GI50 (UO-31)	GI50 (T47D)	GI50 (A498)
CN1CCN(Cc2nc3cccc4c3c([n+]2[O-])-c2ccccc2-4)CC1	25.9 µM (inactive)	10.8 µM (inactive)	14.3 µM (inactive)	12.9 µM (inactive)	20.1 µM (inactive)	16.9 µM (inactive)	22.8 µM (inactive)	10.6 µM (inactive)	38.3 µM (inactive)	31.4 µM (inactive)	54.5 µM (inactive)	26.8 µM (inactive)	16.7 µM (inactive)	31.7 µM (inactive)	23.2 µM (inactive)	17.9 µM (inactive)	53 µM (inactive)	20 µM (inactive)	29.3 µM (inactive)	15.8 µM (inactive)
CCOC(=O)c1c2ccc(/C=C/c3ccccn3)ccc-2c(C(=O)OCC)c1N	> 100 µM (inactive)	> 100 µM (inactive)	91 µM (inactive)	–	> 100 µM (inactive)	> 100 µM (inactive)	> 100 µM (inactive)	–	72.6 µM (inactive)	> 100 µM (inactive)	> 100 µM (inactive)	> 100 µM (inactive)	> 100 µM (inactive)	0.361 µM (active)	> 100 µM (inactive)	0.091 µM (active)	> 100 µM (inactive)	> 100 µM (inactive)	–	24.8 µM (inactive)
CC[P+](C)(C)c1ccccc1	> 100 µM (inactive)	> 100 µM (inactive)	–	> 100 µM (inactive)	> 100 µM (inactive)	> 100 µM (inactive)	> 100 µM (inactive)	–	> 100 µM (inactive)	> 100 µM (inactive)	> 100 µM (inactive)	–	> 100 µM (inactive)	> 100 µM (inactive)	> 100 µM (inactive)	> 100 µM (inactive)	> 100 µM (inactive)	> 100 µM (inactive)	–	> 100 µM (inactive)
C=C(Br)N(CC)CC	> 100 µM (inactive)	> 100 µM (inactive)	> 100 µM (inactive)	> 100 µM (inactive)	> 100 µM (inactive)	> 100 µM (inactive)	> 100 µM (inactive)	–	> 100 µM (inactive)	> 100 µM (inactive)	> 100 µM (inactive)	> 100 µM (inactive)	> 100 µM (inactive)	> 100 µM (inactive)	> 100 µM (inactive)	> 100 µM (inactive)	> 100 µM (inactive)	> 100 µM (inactive)	–	> 100 µM (inactive)
CCOc1ccccc1NC(=O)C(=O)CC(=O)C1=C(C)Nc2ccccc2S1	> 100 µM (inactive)	> 100 µM (inactive)	> 100 µM (inactive)	> 100 µM (inactive)	> 100 µM (inactive)	> 100 µM (inactive)	> 100 µM (inactive)	–	> 100 µM (inactive)	> 100 µM (inactive)	> 100 µM (inactive)	> 100 µM (inactive)	> 100 µM (inactive)	> 100 µM (inactive)	> 100 µM (inactive)	> 100 µM (inactive)	> 100 µM (inactive)	> 93.3 µM (inactive)	–	> 100 µM (inactive)
CN1CCN=C1c1nnn(-c2ccc([N+](=O)[O-])cc2)c1-c1ccccc1	24.7 µM (inactive)	> 100 µM (inactive)	> 100 µM (inactive)	> 100 µM (inactive)	> 100 µM (inactive)	> 100 µM (inactive)	26.5 µM (inactive)	–	> 100 µM (inactive)	> 100 µM (inactive)	67 µM (inactive)	> 100 µM (inactive)	94.6 µM (inactive)	> 100 µM (inactive)	> 100 µM (inactive)	> 100 µM (inactive)	> 100 µM (inactive)	75.5 µM (inactive)	–	> 100 µM (inactive)
COc1cc([C@@H]2c3cc4c(cc3[C@@H](NCc3ccccc3)C3COC(=O)[C@@H]32)OCO4)cc(OC)c1O (stereo not given in full)	3.13 µM (inactive)	20.8 µM (inactive)	–	10.8 µM (inactive)	11.2 µM (inactive)	27.2 µM (inactive)	8.57 µM (inactive)	–	19.3 µM (inactive)	13.1 µM (inactive)	21.6 µM (inactive)	3.46 µM (inactive)	5.25 µM (inactive)	25 µM (inactive)	6.65 µM (inactive)	7.19 µM (inactive)	17.1 µM (inactive)	7.08 µM (inactive)	–	6.05 µM (inactive)
COC(=O)[C@@H]1c2cc3c(c(O)c2[C@@H](OC2OC(C)C(OC)C(C)(OC)C2OC)C[C@]1(C)O)C(=O)c1c(O)cc2c(c1C3=O)O[C@H]1O[C@]2(C)[C@H](O)[C@@H](N(C)C)[C@@H]1O (stereo not given in full)	0.0114 µM (active)	0.0132 µM (active)	0.0138 µM (active)	0.00508 µM (active)	0.00453 µM (active)	0.00629 µM (active)	0.00456 µM (active)	0.299 µM (active)	0.000391 µM (active)	0.0266 µM (active)	0.00146 µM (active)	0.00427 µM (active)	0.00254 µM (active)	0.00556 µM (active)	0.0317 µM (active)	0.00585 µM (active)	0.00433 µM (active)	0.301 µM (active)	0.0276 µM (active)	0.000507 µM (active)
CC1/C(=N\O)CC(c2ccccc2)N(C)C1c1ccccc1 (stereo not given)	> 100 µM (inactive)	> 100 µM (inactive)	> 100 µM (inactive)	> 100 µM (inactive)	80.9 µM (inactive)	> 100 µM (inactive)	> 100 µM (inactive)	–	> 100 µM (inactive)	> 100 µM (inactive)	> 100 µM (inactive)	> 100 µM (inactive)	> 100 µM (inactive)	> 100 µM (inactive)	> 100 µM (inactive)	> 100 µM (inactive)	> 100 µM (inactive)	> 100 µM (inactive)	–	> 100 µM (inactive)
CC1=CC(=O)NCCN1C	75.2 µM (inactive)	> 100 µM (inactive)	> 100 µM (inactive)	> 100 µM (inactive)	> 100 µM (inactive)	> 100 µM (inactive)	24.2 µM (inactive)	–	> 100 µM (inactive)	> 100 µM (inactive)	> 100 µM (inactive)	> 100 µM (inactive)	62.7 µM (inactive)	> 100 µM (inactive)	> 100 µM (inactive)	> 100 µM (inactive)	> 100 µM (inactive)	> 100 µM (inactive)	–	> 100 µM (inactive)
CC(N)CC(=O)O (stereo not given)	> 5000 µM (inactive)	> 5000 µM (inactive)	> 5000 µM (inactive)	–	> 5000 µM (inactive)	> 5000 µM (inactive)	> 5000 µM (inactive)	–	> 5000 µM (inactive)	> 5000 µM (inactive)	> 5000 µM (inactive)	> 5000 µM (inactive)	–	> 5000 µM (inactive)	> 5000 µM (inactive)	> 5000 µM (inactive)	> 5000 µM (inactive)	> 5000 µM (inactive)	–	> 5000 µM (inactive)
c1ccc(NC[Si]23OCCN(CCO2)CCO3)cc1	> 100 µM (inactive)	> 100 µM (inactive)	> 100 µM (inactive)	> 100 µM (inactive)	> 100 µM (inactive)	> 100 µM (inactive)	> 100 µM (inactive)	–	> 100 µM (inactive)	> 100 µM (inactive)	> 100 µM (inactive)	> 100 µM (inactive)	–	> 100 µM (inactive)	–	> 100 µM (inactive)	> 100 µM (inactive)	> 100 µM (inactive)	–	> 100 µM (inactive)
CC(=O)[O-].[Zn+].c1ccc(/C(=N\Nc2ccccn2)c2ccccn2)cc1	0.00277 µM (active)	0.3 µM (active)	0.165 µM (active)	0.0519 µM (active)	0.124 µM (active)	0.00028 µM (active)	0.0676 µM (active)	0.0303 µM (active)	0.0429 µM (active)	0.00629 µM (active)	0.0231 µM (active)	0.0929 µM (active)	0.264 µM (active)	0.255 µM (active)	0.0813 µM (active)	0.277 µM (active)	0.71 µM (active)	0.253 µM (active)	0.00206 µM (active)	1.74 µM (inactive)
CC/C=C\C/C=C\C/C=C\CCCCCCCC(=O)OCC(O)CO (stereo not given)	> 47.8 µM (inactive)	> 100 µM (inactive)	22 µM (inactive)	> 67.8 µM (inactive)	> 100 µM (inactive)	70.5 µM (inactive)	58.2 µM (inactive)	–	> 56.9 µM (inactive)	> 88.7 µM (inactive)	> 100 µM (inactive)	> 100 µM (inactive)	39.9 µM (inactive)	> 100 µM (inactive)	> 61.7 µM (inactive)	> 90.8 µM (inactive)	> 100 µM (inactive)	16.4 µM (inactive)	–	> 100 µM (inactive)
